Reference: patent publication US20060069132A1, “Azolecarboxamide herbicides” (priority 2004, published 2006)
Read-outs that look alike come from different tables or passages of the source.

Assays:
barnyardgrass [1] = experiment: Test B pre-/postemergence herbicide test; format: in vivo, Echinochloa crus-galli; conditions: for pest or weed control at 500 g/ha: 500 g ai/ha
In short: (§1)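 Test chemicals in a non-phytotoxic solvent mixture with surfactant were applied preemergence to seeded species and postemergence to plants 2-18 cm tall (1- to 4-leaf stage); rice and barnyardgrass were also tested in a flooded paddy at the 2-leaf stage. Visual rating versus controls after 13-15 days in greenhouse, scale 0 (no effect) to 100 (complete control).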

Surinam grass = experiment: Test B pre-/postemergence herbicide test; format: in vivo, Urochloa decumbens; conditions: for pest or weed control at 500 g/ha: 500 g ai/ha
In short: (§2)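 Pre: seeds sown, then sprayed. Post: 1–4-leaf plants (2–18 cm) sprayed at the same time. Paddy: flooded, treated at 2-leaf stage. Formulation: non-phytotoxic solvent with surfactant. Greenhouse 13–15 days; visual 0–100 score relative to controls.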

cocklebur = experiment: Test B pre-/postemergence herbicide test; format: in vivo, Xanthium strumarium; conditions: for pest or weed control at 500 g/ha: 500 g ai/ha
In short: as §1

large crabgrass = experiment: Test B pre-/postemergence herbicide test; format: in vivo, Digitaria sanguinalis; conditions: for pest or weed control at 500 g/ha: 500 g ai/ha
In short: as §2

giant foxtail = experiment: Test B pre-/postemergence herbicide test; format: in vivo, Setaria faberi; conditions: for pest or weed control at 500 g/ha: 500 g ai/ha
In short: as §2

lambsquarters = experiment: Test B pre-/postemergence herbicide test; format: in vivo, Chenopodium album; conditions: for pest or weed control at 500 g/ha: 500 g ai/ha
In short: as §2

morningglory = experiment: Test B pre-/postemergence herbicide test; format: in vivo, Ipomoea coccinea; conditions: for pest or weed control at 500 g/ha: 500 g ai/ha
In short: as §1

pigweed = experiment: Test B pre-/postemergence herbicide test; format: in vivo, Amaranthus retroflexus; conditions: for pest or weed control at 500 g/ha: 500 g ai/ha
In short: as §2

velvetleaf = experiment: Test B pre-/postemergence herbicide test; format: in vivo, Abutilon theophrasti
In short: as §2

blackgrass = experiment: Test B postemergence herbicide test; format: in vivo, Alopecurus myosuroides; conditions: Alopecurus myosuroides, post-emergence, 336 h, read-out: Blackgrass plant response rating
In short: (§3)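 Paddy species grown to the 2-leaf stage under flooding; blackgrass sprayed postemergence at 2–18 cm (1- to 4-leaf stage). Plants kept in a greenhouse for 13 to 15 days, then visually rated against controls on 0 (no effect) to 100 (complete control).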

wheat = experiment: Test B postemergence herbicide test; format: in vivo, Triticum aestivum; conditions: Triticum aestivum, post-emergence, 336 h, read-out: Wheat plant response rating
In short: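 Scale 0–100: zero equals no visible effect, 100 complete control, judged by eye relative to controls. Timing: 13 to 15 days in greenhouse post-treatment. Growth stage at spraying: two leaves (paddy) or one to four leaves, 2–18 cm (postemergence).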

rice = experiment: Test B flooded paddy test; format: in vivo, Oryza sativa; conditions: Oryza sativa, 336 h, 1000 g ai/ha, scale 0 to 100 (0 no effect, 100 complete control), read-out: Rice plant response rating
In short: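 Plants grow to 1- to 4-leaf stage (2–18 cm) for postemergence spraying, or to 2-leaf stage for the paddy test. Formulated compound is applied. Greenhouse holding lasts 13–15 days. Response is scored visually relative to controls, 0 no effect to 100 complete control; a dash means no result.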

[2] = tested on: small flower umbrella sedge; experiment: Test B flooded paddy test; format: in vivo, Cyperus difformis; conditions: Cyperus difformis, 336 h, 1000 g ai/ha, scale 0 to 100 (0 no effect, 100 complete control), read-out: Sedge, Umbrella plant response rating
In short: as §3

ducksalad = experiment: Test B flooded paddy test; format: in vivo, Heteranthera limosa; conditions: Heteranthera limosa, 336 h, 1000 g ai/ha, scale 0 to 100 (0 no effect, 100 complete control), read-out: Ducksalad plant response rating
In short: as §3

barnyardgrass [3] = experiment: Test B flooded paddy test; format: in vivo, Echinochloa crus-galli; conditions: Echinochloa crus-galli, 336 h, 1000 g ai/ha, scale 0 to 100 (0 no effect, 100 complete control), read-out: Barnyardgrass plant response rating
In short: as §3

[4] = 125 g ai/ha, 0 is no effect, 100 is complete control, preemergence
[5] = 125 g ai/ha, visual rating, scale 0 (no effect) to 100 (complete control)
[6] = postemergence, 500 g ai/ha, scale 0 to 100, 0 is no effect, 100 is complete control

CCc1nn(C(C)C)nc1C(=O)Nc1cccc(C(=O)N(C)C)c1 [Compound 358, N-[3-[(dimethylamino)carbonyl)phenyl]-5-ethyl-2-(1-methylethyl)-2H-1,2,3-triazole-4-carboxamide]
Plant response rating (0 to 100 scale), Barnyardgrass (barnyardgrass [1]; [4]): 70 | pest or weed control at 125 g/ha (barnyardgrass [1]; Echinochloa crus-galli, post-emergence, 125 g ai/ha, visual rating, scale 0 (no effect) to 100 (complete control), read-out: Barnyardgrass plant response rating): 10% | pest or weed control at 500 g/ha (barnyardgrass [1]; Echinochloa crus-galli, post-emergence, postemergence, scale 0 to 100, 0 is no effect, 100 is complete control, read-out: Barnyardgrass plant response rating): 20% | pest or weed control at 500 g/ha (barnyardgrass [1]; Echinochloa crus-galli, pre-emergence, visual rating, 0 = no effect, 100 = complete control, read-out: Plant response rating, Barnyardgrass): 100% | Plant response rating (0 to 100 scale), Surinam Grass (Surinam grass; [4]): 50 | pest or weed control at 125 g/ha (Surinam grass; Urochloa decumbens, post-emergence, 125 g ai/ha, visual rating, scale 0 (no effect) to 100 (complete control), read-out: Surinam Grass plant response rating): 10% | pest or weed control at 500 g/ha (Surinam grass; Urochloa decumbens, post-emergence, postemergence, scale 0 to 100, 0 is no effect, 100 is complete control, read-out: Surinam Grass plant response rating): 10% | pest or weed control at 500 g/ha (Surinam grass; Urochloa decumbens, pre-emergence, visual rating, 0 = no effect, 100 = complete control, read-out: Plant response rating, Surinam Grass): 100% | Plant response rating (0 to 100 scale), Cocklebur (cocklebur; [4]): 40 | pest or weed control at 125 g/ha (cocklebur; Xanthium strumarium, post-emergence, 125 g ai/ha, visual rating, scale 0 (no effect) to 100 (complete control), read-out: Cocklebur plant response rating): 0% | pest or weed control at 500 g/ha (cocklebur; Xanthium strumarium, post-emergence, postemergence, scale 0 to 100, 0 is no effect, 100 is complete control, read-out: Cocklebur plant response rating): 20% | pest or weed control at 500 g/ha (cocklebur; Xanthium strumarium, pre-emergence, visual rating, 0 = no effect, 100 = complete control, read-out: Plant response rating, Cocklebur): 90% | Plant response rating (0 to 100 scale), Crabgrass, Large (large crabgrass; [4]): 100 | pest or weed control at 125 g/ha (large crabgrass; Digitaria sanguinalis, post-emergence, 125 g ai/ha, visual rating, scale 0 (no effect) to 100 (complete control), read-out: Crabgrass, Large plant response rating): 10% | pest or weed control at 500 g/ha (large crabgrass; Digitaria sanguinalis, post-emergence, postemergence, scale 0 to 100, 0 is no effect, 100 is complete control, read-out: Crabgrass, Large plant response rating): 10% | pest or weed control at 500 g/ha (large crabgrass; Digitaria sanguinalis, pre-emergence, visual rating, 0 = no effect, 100 = complete control, read-out: Plant response rating, Crabgrass, Large): 100% | Plant response rating (0 to 100 scale), Foxtail, Giant (giant foxtail; [4]): 60 | pest or weed control at 125 g/ha (giant foxtail; Setaria faberi, post-emergence, 336 h, 125 g ai/ha, visual rating, scale 0 (no effect) to 100 (complete control), read-out: Foxtail, Giant plant response rating): 10% | pest or weed control at 500 g/ha (giant foxtail; Setaria faberi, post-emergence, 336 h, postemergence, scale 0 to 100, 0 is no effect, 100 is complete control, read-out: Foxtail, Giant plant response rating): 30% | pest or weed control at 500 g/ha (giant foxtail; Setaria faberi, pre-emergence, 336 h, visual rating, 0 = no effect, 100 = complete control, read-out: Plant response rating, Foxtail, Giant): 100% | Plant response rating (0 to 100 scale), Lambsquarters (lambsquarters; [4]): 100 | pest or weed control at 125 g/ha (lambsquarters; Chenopodium album, post-emergence, 336 h, 125 g ai/ha, visual rating, scale 0 (no effect) to 100 (complete control), read-out: Lambsquarters plant response rating): 30% | pest or weed control at 500 g/ha (lambsquarters; Chenopodium album, post-emergence, 336 h, postemergence, scale 0 to 100, 0 is no effect, 100 is complete control, read-out: Lambsquarters plant response rating): 50% | pest or weed control at 500 g/ha (lambsquarters; Chenopodium album, pre-emergence, 336 h, visual rating, 0 = no effect, 100 = complete control, read-out: Plant response rating, Lambsquarters): 100% | Plant response rating (0 to 100 scale), Morningglory (morningglory; [4]): 50 | pest or weed control at 125 g/ha (morningglory; Ipomoea, post-emergence, 336 h, 125 g ai/ha, visual rating, scale 0 (no effect) to 100 (complete control), read-out: Morningglory plant response rating): 20% | pest or weed control at 500 g/ha (morningglory; Ipomoea, post-emergence, 336 h, postemergence, scale 0 to 100, 0 is no effect, 100 is complete control, read-out: Morningglory plant response rating): 50% | pest or weed control at 500 g/ha (morningglory; Ipomoea, pre-emergence, 336 h, visual rating, 0 = no effect, 100 = complete control, read-out: Plant response rating, Morningglory): 100% | Plant response rating (0 to 100 scale), Pigweed (pigweed; [4]): 70 | pest or weed control at 125 g/ha (pigweed; Amaranthus retroflexus, post-emergence, 336 h, 125 g ai/ha, visual rating, scale 0 (no effect) to 100 (complete control), read-out: Pigweed plant response rating): 20% | pest or weed control at 500 g/ha (pigweed; Amaranthus retroflexus, post-emergence, 336 h, postemergence, scale 0 to 100, 0 is no effect, 100 is complete control, read-out: Pigweed plant response rating): 40% | pest or weed control at 500 g/ha (pigweed; Amaranthus retroflexus, pre-emergence, 336 h, visual rating, 0 = no effect, 100 = complete control, read-out: Plant response rating, Pigweed): 100% | Plant response rating (0 to 100 scale), Velvetleaf (velvetleaf; [4]): 50 | pest or weed control at 125 g/ha (velvetleaf; Abutilon theophrasti, post-emergence, 336 h, 125 g ai/ha, visual rating, scale 0 (no effect) to 100 (complete control), read-out: Velvetleaf plant response rating): 10% | pest or weed control at 500 g/ha (velvetleaf; Abutilon theophrasti, post-emergence, 336 h, postemergence, 500 g ai/ha, scale 0 to 100, 0 is no effect, 100 is complete control, read-out: Velvetleaf plant response rating): 20% | pest or weed control at 125 g/ha (blackgrass; [5]): 10% | pest or weed control at 500 g/ha (blackgrass; [6]): 40% | plant injury at 125 g/ha (wheat; [5]): 0% | plant injury at 500 g/ha (wheat; [6]): 10% | plant injury at 1000 g/ha (rice): 70% | pest or weed control at 1000 g/ha [2]: 80% | pest or weed control at 1000 g/ha (ducksalad): 90% | pest or weed control at 1000 g/ha (barnyardgrass [3]): 80%
